The values below are quoted from earlier work in patent publication US11337932B2, “Transdermal therapeutic system containing asenapine and polysiloxane or polyisobutylene” (LTS LOHMANN Therapie-Systeme AG, priority 2016, dated 2022).

Data set [1] has as its target serotonin 5-HT2A receptors (Homo sapiens, UniProt P28223). The settings on record: background statement; antagonist at dopamine D2 and serotonin 5-HT2A receptors.
For data set [2] the following is noted: if ingested.

serotonin 5-HT2A receptors, sequence (P28223 whole entry): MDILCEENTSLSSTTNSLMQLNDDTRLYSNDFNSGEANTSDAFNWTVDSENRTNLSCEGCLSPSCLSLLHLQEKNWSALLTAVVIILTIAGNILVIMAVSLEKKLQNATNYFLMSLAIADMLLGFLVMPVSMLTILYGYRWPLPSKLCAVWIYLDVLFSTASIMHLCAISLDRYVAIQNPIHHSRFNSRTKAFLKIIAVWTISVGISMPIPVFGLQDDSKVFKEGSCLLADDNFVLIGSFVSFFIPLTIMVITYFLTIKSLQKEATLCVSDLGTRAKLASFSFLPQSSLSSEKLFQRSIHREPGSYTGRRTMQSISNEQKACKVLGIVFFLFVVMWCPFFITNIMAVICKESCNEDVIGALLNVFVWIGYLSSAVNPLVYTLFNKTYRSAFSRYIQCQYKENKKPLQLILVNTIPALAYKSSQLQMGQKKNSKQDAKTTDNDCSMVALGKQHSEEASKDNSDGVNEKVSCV

In general, bioavailability refers to dose-corrected exposure relative to a reference, in per cent. In the case of `CN1C[C@H]2c3ccccc3Oc3ccc(Cl)cc3[C@@H]2C1` (relative stereo) [asenapine, (3aRS,12bRS)-rel-5-chloro-2,3,3a,12b-tetrahydro-2-methyl-1H-dibenz[2,3:6,7]oxepino[4,5-c]pyrrole], in data set [1], the affinity entry is given as “high affinity”. For the same compound, the bioavailability in data set [2] is given as < 2%.
